Experiment [1] addresses recombinant SARS-CoV-2 Main protease (Mpro) (Severe acute respiratory syndrome coronavirus 2 (2019-nCoV) (SARS-CoV-2), UniProt P0DTD1). Kind of experiment: Cov Mpro Biochemical IC50 Assay. Conditions: fluorogenic peptide substrate.
Experiment [2] deals with SARS-CoV-2-NLuc. Kind of experiment: microbe, parasite or virus in culture. It counts as cell-based, SARS Coronavirus 2.
Setting [3] is: recombinant SARS-CoV-2 Mpro, read-out: MPro IC50.
Where [4] appears, read: Severe acute respiratory syndrome coronavirus, 48 h, read-out: MPro EC50.

Structures are written as SMILES. Where two headings read alike, the source gives them in different places.

The term IC50 denotes the concentration that gives 50% inhibition. The EC50 is the concentration giving half of the maximal effect.

As to `Cn1cc2ccc(-n3c(=O)n(-c4cncc5ccccc45)c(=O)c4sc(-c5ccccc5Cl)cc43)cc2n1` [Example 152, 6-(2-chlorophenyl)-3-(isoquinolin-4-yl)-1-(2-methyl-2H-indazol-6-yl)thieno[3,2-d]pyrimidine-2,4(1H,3H)-dione], the half-inhibitory concentration (IC50) in experiment [1] (setting [3]) was 85.8 nM. Also, in experiment [2] (setting [4]), the EC50 came to 149 nM.

`Cn1cnc(Cn2c(=O)n(-c3cncc4ccccc34)c(=O)c3sc(-c4ccccc4Cl)cc32)n1` [Example 153, 6-(2-chlorophenyl)-3-(4-isoquinolyl)-1-[(1-methyl-1,2,4-triazol-3-yl)methyl]thieno[3,2-d]pyrimidine-2,4-dione]: the IC50 in experiment [1] (setting [3]) was determined as 18.5 nM. Moreover, in experiment [2] (setting [4]), the EC50 came out at 66.1 nM.

As for `O=c1c2sc(-c3ccccc3Cl)cc2n(Cc2cccnn2)c(=O)n1-c1cncc2ccccc12` [Example 154], in experiment [1] (setting [3]), the IC50 came to 124 nM. Moreover, in experiment [2] (setting [4]), the EC50 was found to be 193 nM.

Take `O=c1c2sc(-c3ccccc3Cl)cc2n(Cc2ccnnc2)c(=O)n1-c1cncc2ccccc12` [Example 155]: the 50% inhibitory concentration (IC50) in experiment [1] (setting [3]) amounted to 9.13 nM. Besides, the EC50 in experiment [2] (setting [4]) amounted to 125 nM.

As for `O=c1c2sc(-c3ccccc3Cl)cc2n(Cc2cccnc2)c(=O)n1-c1cncc2ccccc12` [Example 156], the IC50 in experiment [1] (setting [3]) was 167 nM. Besides, in experiment [2] (setting [4]), the EC50 turned out to be 171 nM.

With `O=c1c2sc(-c3ccccc3Cl)cc2n(Cc2ccncc2)c(=O)n1-c1cncc2ccccc12` [Example 157], in experiment [1] (setting [3]), the IC50 was determined as 164 nM. The EC50 in experiment [2] (setting [4]) amounted to 204 nM.

In the case of `O=c1[nH]c2sc(-c3ccccc3)nc2c(=O)n1-c1cncc2ccccc12` [Example 158, 6-(isoquinolin-4-yl)-2-phenylthiazolo[5,4-d]pyrimidine-5,7(4H,6H)-dione], the IC50 in experiment [1] (setting [3]) turned out to be 133 nM. Besides, the EC50 in experiment [2] (setting [4]) was found to be 19100 nM.

`C#Cc1cccc(Cl)c1-c1ccc2c(=O)n(-c3cncc4ccccc34)c(=O)[nH]c2c1` [Example 159, 7-(2-chloro-6-ethynyl-phenyl)-3-(4-isoquinolyl)-1H-quinazoline-2,4-dione]: the IC50 in experiment [1] (setting [3]) stood at 988 nM. In addition, the EC50 in experiment [2] (setting [4]) was 335 nM.

With `O=c1[nH]c2cc(-c3c(Cl)cccc3-c3cn(C4CC4)nn3)ccc2c(=O)n1-c1cncc2ccccc12` [Example 160, 7-(2-chloro-6-(1-cyclopropyl-1H-1,2,3-triazol-4-yl)phenyl)-3-(isoquinolin-4-yl)quinazoline-2,4(1H,3H)-dione], the IC50 in experiment [1] (setting [3]) turned out to be 17.2 nM. Besides, the EC50 in experiment [2] (setting [4]) is 56.8 nM.

Consider `O=c1[nH]c2cc(-c3c(Cl)cccc3-c3nc4ccccc4[nH]3)ccc2c(=O)n1-c1cncc2ccccc12` [Example 161, 7-[2-(1H-benzimidazol-2-yl)-6-chloro-phenyl]-3-(4-isoquinolyl)-1H-quinazoline-2,4-dione], for which, in experiment [1] (setting [3]), the IC50 came to 27.1 nM. Further, the EC50 in experiment [2] (setting [4]) was 129 nM.

With `O=c1[nH]c2cc(-c3c(F)cccc3Cl)ccc2c(=O)n1-c1cncc2ccccc12` [Example 162, 7-(2-Chloro-6-fluoro-phenyl)-3-(4-isoquinolyl)-1H-quinazoline-2,4-dione], in experiment [1] (setting [3]), the IC50 is 344 nM. In experiment [2] (setting [4]), the half-maximal effective concentration (EC50) came out at 392 nM.

`O=c1[nH]c2cc(-c3ccccc3Cl)ncc2c(=O)n1-c1cncc2ccccc12` [Example 163, 7-(2-chlorophenyl)-3-(4-isoquinolyl)-1H-pyrido[4,3-d]pyrimidine-2,4-dione]: the IC50 in experiment [1] (setting [3]) was found to be 489 nM. In addition, the EC50 in experiment [2] (setting [4]) was 932 nM.

With `O=c1[nH]c2cc(-c3ccccc3)ncc2c(=O)n1-c1cncc2ccccc12` [Example 164], the IC50 in experiment [1] (setting [3]) amounted to 7880 nM. Also, the EC50 in experiment [2] (setting [4]) was determined as 12500 nM.

For the molecule `Cc1ccccc1-c1cc2[nH]c(=O)n(-c3cncc4ccccc34)c(=O)c2cn1` [Example 165], the IC50 in experiment [1] (setting [3]) was determined as 1470 nM. Moreover, the concentration for a half-maximal effect (EC50) in experiment [2] (setting [4]) turned out to be 2470 nM.

On to `O=c1[nH]c2cc(-c3ncco3)sc2c(=O)n1-c1cncc2ccccc12` [Example 166, 3-(isoquinolin-4-yl)-6-(oxazol-2-yl)thieno[3,2-d]pyrimidine-2,4(1H,3H)-dione], for which the IC50 in experiment [1] (setting [3]) was determined as 942 nM. Besides, the EC50 in experiment [2] (setting [4]) amounted to 4420 nM.

With `COc1ccc(Cn2c(=O)n(-c3cncc4ccccc34)c(=O)c3sc(-c4cccc5c4CCC5)cc32)cc1` [Example 167, 6-(2,3-dihydro-1H-inden-4-yl)-3-(isoquinolin-4-yl)-1-(4-methoxybenzyl)thieno[3,2-d]pyrimidine-2,4(1H,3H)-dione], the IC50 in experiment [1] (setting [3]) stood at 49700 nM. In addition, the EC50 in experiment [2] (setting [4]) stood at 4510 nM.

For the molecule `O=c1[nH]c2cc(-c3cccc4c3CCC4)sc2c(=O)n1-c1cncc2ccccc12` [Example 168, 6-(2,3-dihydro-1H-inden-4-yl)-3-(isoquinolin-4-yl)thieno[3,2-d]pyrimidine-2,4(1H,3H)-dione], the IC50 in experiment [1] (setting [3]) was 615 nM. For the same molecule, the EC50 in experiment [2] (setting [4]) stood at 810 nM.

For the molecule `O=c1c2sc(-c3cccc4c3CCC4)cc2n(Cc2ccc(O)cc2)c(=O)n1-c1cncc2ccccc12` [Example 169], the 50% inhibitory concentration (IC50) in experiment [1] (setting [3]) was 5550 nM. The half-maximal effective concentration (EC50) in experiment [2] (read-out: MPro EC50) amounted to 744 nM.

In the case of `O=c1c2sc(-c3ncco3)cc2n(CC2CCCC2)c(=O)n1-c1cncc2ccccc12` [Example 170, 1-(cyclopentylmethyl)-3-(isoquinolin-4-yl)-6-(oxazol-2-yl)thieno[3,2-d]pyrimidine-2,4(1H,3H)-dione], in experiment [1] (setting [3]), the IC50 came out at 192 nM. Moreover, the EC50 in experiment [2] (setting [4]) is 421 nM.

For `O=c1[nH]c2cc(-c3cccc4c3CCC4)ccc2c(=O)n1-c1cncc2ccccc12` [Example 171, 7-(2,3-dihydro-1H-inden-4-yl)-3-(isoquinolin-4-yl)quinazoline-2,4(1H,3H)-dione], in experiment [1] (setting [3]), the IC50 is 3790 nM. Further, the half-maximal effective concentration (EC50) in experiment [2] (setting [4]) was found to be 4200 nM.

`O=c1[nH]c2cc(-c3c(Cl)ccc4c3OCO4)ccc2c(=O)n1-c1cncc2ccccc12` [Example 172]: the IC50 in experiment [1] (setting [3]) was determined as 159 nM. Moreover, the EC50 in experiment [2] (setting [4]) stood at 75.8 nM.

With `O=C1Nc2ccc(-c3cccc(Cl)c3-c3ccc4c(=O)n(-c5cncc6ccccc56)c(=O)[nH]c4c3)cc2C1(F)F` [Example 173], the IC50 in experiment [1] (setting [3]) worked out at 380 nM. For the same molecule, the EC50 in experiment [2] (setting [4]) turned out to be 650 nM.

Consider `COc1ccc(Cl)c(-c2cc3[nH]c(=O)n(-c4cncc5ccccc45)c(=O)c3s2)c1` [Example 174, 6-(2-chloro-5-methoxyphenyl)-3-(isoquinolin-4-yl)thieno[3,2-d]pyrimidine-2,4(1H,3H)-dione], for which the IC50 in experiment [1] (setting [3]) came out at 6.99 nM. Also, the EC50 in experiment [2] (setting [4]) was found to be 30.7 nM.

As to `COc1ccc2cncc(-n3c(=O)[nH]c4cc(-c5ccccc5Cl)sc4c3=O)c2c1` [Example 175, 6-(2-chlorophenyl)-3-(6-methoxyisoquinolin-4-yl)thieno[3,2-d]pyrimidine-2,4(1H,3H)-dione], in experiment [1] (setting [3]), the IC50 stood at 4.68 nM. Also, in experiment [2] (setting [4]), the EC50 stood at 26.6 nM.

For `O=c1c2sc(-c3ccccc3Cl)cc2[nH]c(=S)n1-c1cncc2ccccc12` [Example 176], the half-inhibitory concentration (IC50) in experiment [1] (MPro IC50, recombinant SARS-CoV-2 Mpro) worked out at 330 nM. Further, the EC50 in experiment [2] (Severe acute respiratory syndrome coronavirus, 48 h; read-out: MPro EC50) came out at 292 nM.

`Cc1cc(F)ccc1-c1cc2[nH]c(=O)n(-c3cncc4ccccc34)c(=O)c2s1` [Example 177]: the IC50 in experiment [1] (setting [3]) was found to be 89.7 nM. The EC50 in experiment [2] (setting [4]) is 137 nM.

As for `COc1cc(F)ccc1-c1cc2[nH]c(=O)n(-c3cncc4ccccc34)c(=O)c2s1` [Example 178], the IC50 in experiment [1] (setting [3]) was determined as 221 nM. Further, the EC50 in experiment [2] (setting [4]) amounted to 196 nM.

`O=c1[nH]c2cc(-c3c(Cl)cccc3-c3ccc4c(c3)CCO4)ccc2c(=O)n1-c1cncc2ccccc12` [Example 179]: the concentration for half-maximal inhibition (IC50) in experiment [1] (setting [3]) worked out at 195 nM. The EC50 in experiment [2] (setting [4]) amounted to 84.8 nM.

As for `O=c1[nH]c2cc(-c3cc(C(F)(F)F)ccc3Cl)ccc2c(=O)n1-c1cncc2ccccc12` [Example 180], the IC50 in experiment [1] (setting [3]) amounted to 3740 nM. Also, in experiment [2] (setting [4]), the EC50 worked out at 1960 nM.

As to `O=c1[nH]c2cc(-c3cc(OC(F)(F)F)ccc3Cl)ccc2c(=O)n1-c1cncc2ccccc12` [Example 181], the IC50 in experiment [1] (setting [3]) was 1220 nM. Also, the half-maximal effective concentration (EC50) in experiment [2] (setting [4]) is 438 nM.

As to `N#Cc1ccc(Cl)c(-c2ccc3c(=O)n(-c4cncc5ccccc45)c(=O)[nH]c3c2)c1` [Example 182], the IC50 in experiment [1] (setting [3]) amounted to 45.1 nM. Further, the concentration for a half-maximal effect (EC50) in experiment [2] (setting [4]) worked out at 90 nM.

For `O=c1[nH]c2cc(-c3ccc(F)cc3Cl)ccc2c(=O)n1-c1cncc2ccccc12` [Example 183], the IC50 in experiment [1] (setting [3]) came out at 585 nM. In experiment [2] (setting [4]), the EC50 turned out to be 354 nM.

Regarding `N#Cc1cccc(-c2cccc(Cl)c2-c2ccc3c(=O)n(-c4cncc5ccccc45)c(=O)[nH]c3c2)c1` [Example 184], the IC50 in experiment [1] (setting [3]) worked out at 92.5 nM. The EC50 in experiment [2] (setting [4]) was determined as 40 nM.

`NC(=O)c1cncc(-c2cccc(Cl)c2-c2ccc3c(=O)n(-c4cncc5ccccc45)c(=O)[nH]c3c2)c1` [Example 185]: in experiment [1] (setting [3]), the IC50 was below 3.01 nM. Further, the EC50 in experiment [2] (setting [4]) came to 489 nM.

For the molecule `COc1ncc(-c2cccc(Cl)c2-c2ccc3c(=O)n(-c4cncc5ccccc45)c(=O)[nH]c3c2)cc1C#N` [Example 186], the 50% inhibitory concentration (IC50) in experiment [1] (setting [3]) was 112 nM. In addition, in experiment [2] (setting [4]), the EC50 is 50.7 nM.

On to `O=c1[nH]c2cc(-c3c(Cl)cccc3-c3cccnc3)ccc2c(=O)n1-c1cncc2ccccc12` [Example 187], for which the IC50 in experiment [1] (setting [3]) worked out at 29.4 nM. The EC50 in experiment [2] (setting [4]) came to 17.6 nM.

Regarding `CN(C)C(=O)c1cccc(-c2cccc(Cl)c2-c2ccc3c(=O)n(-c4cncc5ccccc45)c(=O)[nH]c3c2)c1` [Example 188], the IC50 in experiment [1] (setting [3]) is 121 nM. Moreover, the EC50 in experiment [2] (setting [4]) was determined as 59.4 nM.

With `CNC(=O)c1cccc(-c2cccc(Cl)c2-c2ccc3c(=O)n(-c4cncc5ccccc45)c(=O)[nH]c3c2)c1` [Example 189], in experiment [1] (setting [3]), the IC50 worked out at 8.58 nM. Besides, in experiment [2] (setting [4]), the EC50 stood at 18.2 nM.

For the molecule `CC1(C)Cc2c(-c3cccc(Cl)c3-c3ccc4c(=O)n(-c5cncc6ccccc56)c(=O)[nH]c4c3)cnn2C1` [Example 190], the IC50 in experiment [1] (setting [3]) came to 19.7 nM. In addition, the half-maximal effective concentration (EC50) in experiment [2] (setting [4]) is 16.4 nM.

As for `COc1ccc(Cl)c(-c2ccc3c(=O)n(-c4cncc(C5CC5)c4)c(=O)[nH]c3c2)c1` [Example 191], the IC50 in experiment [1] (setting [3]) is 73.8 nM. In addition, in experiment [2] (setting [4]), the concentration giving a half-maximal response (EC50) came to 91 nM.

For the molecule `Cc1ccc(-c2ccc3c(=O)n(-c4cncc5ccccc45)c(=O)[nH]c3c2)c(Cl)c1` [Example 192], the IC50 in experiment [1] (setting [3]) is above 50000 nM. Besides, the EC50 in experiment [2] (setting [4]) worked out at 3890 nM.

These data come from US20240116946A1 (Gilead Sciences, Inc., priority 2022, published 2024).
